Test results reported in article PMC12396409, “Screening and hit evaluation of a microbial metabolite library against the pathogenic Plasmodium falciparum and Toxoplasma gondii parasites” (International Journal for Parasitology: Drugs and Drug …, 2025).
Like-named read-outs stand apart in the source and are kept apart here.

What was measured:
[1] = test system: P. falciparum 3D7 parasites; assay: P. falciparum growth inhibition assay, 1-cycle (72 h treatment), SYBR DNA staining (library screen at 2 μg/mL and dose-response); assay type: cell-based, Plasmodium falciparum; conditions: for activity at 2 µg/mL: Plasmodium falciparum
[2] = test system: P. falciparum 3D7 parasites; assay: P. falciparum growth inhibition assay, 2-cycle (120 h treatment), delayed-death screen and dose-response; assay type: cell-based, Plasmodium falciparum; conditions: for activity at 2 µg/mL: Plasmodium falciparum
[3] = test system: T. gondii RH strain (RH-Tub-eYFP) tachyzoites; assay: microbe, parasite or virus in culture; assay type: cell-based, Toxoplasma gondii; conditions: for percent parasite growth at 2 µg/mL: Toxoplasma gondii
[4] = P. falciparum 3D7, 72 h, parasite screen at 2 μg/mL, % growth, replicate 1
[5] = P. falciparum 3D7, 72 h, parasite screen at 2 μg/mL, % growth, replicate 2
[6] = P. falciparum 3D7, 120 h, parasite screen at 2 μg/mL, % growth, replicate 1
[7] = P. falciparum 3D7, 120 h, parasite screen at 2 μg/mL, % growth, replicate 2
[8] = T. gondii, 72 h, parasite screen at 2 μg/mL, % growth, replicate 1
[9] = T. gondii, 72 h, parasite screen at 2 μg/mL, % growth, replicate 2
[10] = 3D7, 72 h, P. falciparum, 72 h, screen at 2 μg/mL, replicate 1, read-out: Pf_72h_%Growth_Rep1
[11] = 3D7, 72 h, P. falciparum, 72 h, screen at 2 μg/mL, replicate 2, read-out: Pf_72h_%Growth_Rep2
[12] = 3D7, 120 h, P. falciparum, 120 h, screen at 2 μg/mL, replicate 1, read-out: Pf_120h_%Growth_Rep1
[13] = 3D7, 120 h, P. falciparum, 120 h, screen at 2 μg/mL, replicate 2, read-out: Pf_120h_%Growth_Rep2
[14] = 72 h, T. gondii, 72 h, screen at 2 μg/mL, replicate 1, read-out: Tg_72h_%Growth_Rep1
[15] = 72 h, T. gondii, 72 h, screen at 2 μg/mL, replicate 2, read-out: Tg_72h_%Growth_Rep2
[16] = P. falciparum, 72 h, parasite screen 2 μg/mL, % growth, replicate 2
[17] = P. falciparum, 120 h, parasite screen 2 μg/mL, % growth, replicate 2
[18] = T. gondii, 72 h, parasite screen 2 μg/mL, % growth, replicate 2
[19] = P. falciparum, 72 h, parasite screen 2 μg/mL, % growth, replicate 1
[20] = P. falciparum, 120 h, parasite screen 2 μg/mL, % growth, replicate 1
[21] = T. gondii, 72 h, parasite screen 2 μg/mL, % growth, replicate 1
[22] = library screen at 2 μg/mL, 72 h, % growth, replicate 1
[23] = library screen at 2 μg/mL, 72 h, % growth, replicate 2
[24] = library screen at 2 μg/mL, 120 h, % growth, replicate 1
[25] = library screen at 2 μg/mL, 120 h, % growth, replicate 2

CC[C@H]1OC(=O)[C@H](C)[C@@H](O[C@H]2C[C@@](C)(OC)[C@@H](O)[C@H](C)O2)[C@H](C)[C@@H](O[C@@H]2O[C@H](C)C[C@H](N(C)C)[C@H]2O)[C@](C)(O)C[C@@H](C)[C@@H]2N[C@@H](COCCOC)O[C@H]([C@H]2C)[C@]1(C)O [Dirithromycin]
activity at 2 µg/mL ([1]; 3D7, 72 h, library screen at 2 μg/mL, 72 h, % growth, replicate 1, read-out: Pf_72h_%Growth_Rep1): 80.4%
activity at 2 µg/mL ([1]; 3D7, 72 h, library screen at 2 μg/mL, 72 h, % growth, replicate 2, read-out: Pf_72h_%Growth_Rep2): 73.2%
activity at 2 µg/mL ([2]; 3D7, 120 h, library screen at 2 μg/mL, 120 h, % growth, replicate 1, read-out: Pf_120h_%Growth_Rep1): 62.1%
activity at 2 µg/mL ([2]; 3D7, 120 h, library screen at 2 μg/mL, 120 h, % growth, replicate 2, read-out: Pf_120h_%Growth_Rep2): 48.4%
percent parasite growth at 2 µg/mL ([3]; 72 h, library screen at 2 μg/mL, 72 h, % growth, replicate 1, read-out: Tg_72h_%Growth_Rep1): 67.5%
percent parasite growth at 2 µg/mL ([3]; 72 h, library screen at 2 μg/mL, 72 h, % growth, replicate 2, read-out: Tg_72h_%Growth_Rep2): 74.8%

CC[C@H](C)C(=O)O[C@H]1CCC=C2C=C[C@H](C)[C@H](CC[C@@H]3C[C@@H](O)CC(=O)O3)[C@H]21 [BIA-M1209]
Pf_72h_%Growth_Rep1 [1, 4]: 86.39%
Pf_72h_%Growth_Rep2 [1, 5]: 121.47%
Pf_120h_%Growth_Rep1 [2, 6]: 88.69%
Pf_120h_%Growth_Rep2 [2, 7]: 112.58%
Tg_72h_%Growth_Rep1 [3, 8]: 113.16%
Tg_72h_%Growth_Rep2 [3, 9]: 83.90%

CO[C@H]1[C@H](O)C[C@@H](O[C@@H]2C[C@H](Oc3cc4cc5c(c(O)c4c(O)c3C)C(=O)[C@@H](O[C@H]3C[C@H](O[C@H]4C[C@H](O[C@H]6C[C@@](C)(O)[C@@H](OC(=O)C(C)C)[C@H](C)O6)[C@H](O)[C@@H](C)O4)[C@H](O)[C@@H](C)O3)[C@H]([C@H](OC)C(=O)[C@@H](O)[C@@H](C)O)C5)O[C@H](C)[C@H]2OC(C)=O)O[C@@H]1C [Chromomycin A2]
activity at 2 µg/mL [1, 10]: 6.05%
activity at 2 µg/mL [1, 11]: 1.3%
activity at 2 µg/mL [2, 12]: 3.01%
activity at 2 µg/mL [2, 13]: 9.04%
percent parasite growth at 2 µg/mL [3, 14]: 2.51%
percent parasite growth at 2 µg/mL [3, 15]: 1.82%

COc1c(C)c2c(c(O)c1C/C=C(\C)CCC(=O)O)C(=O)OC2 [BIA-M1207]
Pf_72h_%Growth_Rep1 [1, 4]: 27.32%
Pf_72h_%Growth_Rep2 [1, 5]: 1.32%
Pf_120h_%Growth_Rep1 [2, 6]: 16.21%
Pf_120h_%Growth_Rep2 [2, 7]: 22.24%
Tg_72h_%Growth_Rep1 [3, 8]: 1.75%
Tg_72h_%Growth_Rep2 [3, 9]: 2.10%

C=C1[C@@H](C)[C@H]2[C@H](Cc3ccccc3)NC(=O)[C@]23[C@H](OC(C)=O)/C=C/[C@@](C)(O)C(=O)[C@@H](C)C/C=C/[C@H]3[C@@H]1O [Cytochalasin D]
activity at 2 µg/mL [1, 10]: 6.33%
activity at 2 µg/mL [1, 11]: 2.44%
activity at 2 µg/mL [2, 12]: 3.12%
activity at 2 µg/mL [2, 13]: 4.41%
percent parasite growth at 2 µg/mL [3, 14]: 2.17%
percent parasite growth at 2 µg/mL [3, 15]: 2.65%

CC[C@@H](C(=O)[C@@H](C)[C@@H](O)[C@H](C)[C@@H]1O[C@@H]([C@@H](CC)C(=O)O)CC[C@@H]1C)[C@H]1O[C@]2(C=C[C@@H](O)[C@]3(CC[C@@](C)([C@H]4CC[C@](O)(CC)[C@H](C)O4)O3)O2)[C@H](C)C[C@@H]1C [Salinomycin]
Pf_72h_%Growth_Rep2 [1, 16]: -1.92%
activity at 2 µg/mL ([1]; 3D7, 72 h, P. falciparum, 72 h, parasite screen 2 μg/mL, % growth, replicate 1, read-out: Pf_72h_%Growth_Rep1): 3.76%
Pf_120h_%Growth_Rep2 [2, 17]: 1.02%
activity at 2 µg/mL ([2]; 3D7, 120 h, P. falciparum, 120 h, parasite screen 2 μg/mL, % growth, replicate 1, read-out: Pf_120h_%Growth_Rep1): 13.6%
Tg_72h_%Growth_Rep2 [3, 18]: 0.21%
percent parasite growth at 2 µg/mL ([3]; 72 h, T. gondii, 72 h, parasite screen 2 μg/mL, % growth, replicate 1, read-out: Tg_72h_%Growth_Rep1): 2.46%

Cc1cc(O)c2c(c1)C(=O)C13C(=C2O)C(=O)C2C(O)C1C1C(O)C3C(=O)C3=C(O)c4c(O)cc(C)cc4C(=O)C321 (stereo not drawn) [Rugulosin + form]
Pf_72h_%Growth_Rep1 [1, 19]: 87.73%
Pf_72h_%Growth_Rep2 [1, 16]: 120.80%
Pf_120h_%Growth_Rep1 [2, 20]: 82.55%
Pf_120h_%Growth_Rep2 [2, 17]: 131.94%
Tg_72h_%Growth_Rep1 [3, 21]: 114.00%
Tg_72h_%Growth_Rep2 [3, 18]: 82.13%

C=C(NC(=O)C(=C)NC(=O)c1csc(C2=N[C@@H]3c4csc(n4)[C@H]4NC(=O)c5csc(n5)[C@H]([C@](C)(O)[C@@H](C)O)NC(=O)[C@H]5CSC(=N5)/C(=C/C)NC(=O)[C@H]([C@@H](C)O)NC(=O)c5csc(n5)[C@]3(CC2)NC(=O)[C@H](C)NC(=O)C(=C)NC(=O)C(=C)NC(=O)[C@H](C(C)C)N[C@@H]2C=Cc3c([C@H](C)O)cc(nc3[C@H]2O)C(=O)O[C@@H]4C)n1)C(N)=O [Siomycin A]
Pf_72h_%Growth_Rep1 [1, 19]: 88.11%
Pf_72h_%Growth_Rep2 [1, 16]: 105.15%
Pf_120h_%Growth_Rep1 [2, 20]: 88.55%
Pf_120h_%Growth_Rep2 [2, 17]: 55.07%
Tg_72h_%Growth_Rep1 [3, 21]: 94.53%
Tg_72h_%Growth_Rep2 [3, 18]: 80.70%

CC1CCCCCC(=O)c2c(O)cc(O)cc2CC(=O)O1 (stereo not drawn) [Curvularin]
activity at 2 µg/mL ([1]; 3D7, P. falciparum, 72 h, screen at 2 μg/mL, replicate 1, read-out: Pf_72h_%Growth_Rep1): 94%
activity at 2 µg/mL ([1]; 3D7, P. falciparum, 72 h, screen at 2 μg/mL, replicate 2, read-out: Pf_72h_%Growth_Rep2): 47.8%
activity at 2 µg/mL ([2]; 3D7, P. falciparum, 120 h, screen at 2 μg/mL, replicate 1, read-out: Pf_120h_%Growth_Rep1): 93.3%
activity at 2 µg/mL ([2]; 3D7, P. falciparum, 120 h, screen at 2 μg/mL, replicate 2, read-out: Pf_120h_%Growth_Rep2): 122%
percent parasite growth at 2 µg/mL [3, 14]: 143%
percent parasite growth at 2 µg/mL [3, 15]: 80.4%

CCCCCCCCCCCC(=O)N[C@H]1CCOC1=O [Dodecanoyl-L-homoserine lactone]
Pf_72h_%Growth_Rep1 [1, 22]: 84.60%
Pf_72h_%Growth_Rep2 [1, 23]: 89.07%
Pf_120h_%Growth_Rep1 [2, 24]: 96.32%
Pf_120h_%Growth_Rep2 [2, 25]: 89.02%
Tg_72h_%Growth_Rep1 [3, 22]: 110.87%
Tg_72h_%Growth_Rep2 [3, 23]: 103.60%

CN(C)[C@H]1C(O)=C(C(N)=O)C(=O)[C@@]2(O)C(O)=C3C(=O)c4c(O)cccc4[C@@](C)(O)[C@H]3[C@H](O)[C@@H]12 [Epioxytetracycline]
Pf_72h_%Growth_Rep1 [1, 22]: 86.72%
Pf_72h_%Growth_Rep2 [1, 23]: 78.69%
Pf_120h_%Growth_Rep1 [2, 24]: 99.19%
Pf_120h_%Growth_Rep2 [2, 25]: 96.08%
Tg_72h_%Growth_Rep1 [3, 22]: 152.95%
Tg_72h_%Growth_Rep2 [3, 23]: 107.04%

CC[C@H]1C[C@@H]2CC[C@@H](O2)[C@@H](C)C(=O)O[C@H](CC)C[C@H]2CC[C@H](O2)[C@H](C)C(=O)O[C@@H](CC)C[C@@H]2CC[C@@H](O2)[C@@H](C)C(=O)O[C@H](CC)C[C@H]2CC[C@H](O2)[C@H](C)C(=O)O1 [Tetranactin]
Pf_72h_%Growth_Rep1 ([1]; P. falciparum, 72 h, screen at 2 μg/mL, replicate 1): 6.09%
Pf_72h_%Growth_Rep2 ([1]; P. falciparum, 72 h, screen at 2 μg/mL, replicate 2): -9.23%
Pf_120h_%Growth_Rep1 ([2]; P. falciparum, 120 h, screen at 2 μg/mL, replicate 1): 29.81%
Pf_120h_%Growth_Rep2 ([2]; P. falciparum, 120 h, screen at 2 μg/mL, replicate 2): 14.39%
Tg_72h_%Growth_Rep1 ([3]; T. gondii, 72 h, screen at 2 μg/mL, replicate 1): 5.41%
Tg_72h_%Growth_Rep2 ([3]; T. gondii, 72 h, screen at 2 μg/mL, replicate 2): 2.84%

CO[C@H]1C[C@H](O[C@H]2[C@H](C)O[C@@H](O[C@@H]3/C(C)=C/C[C@@H]4C[C@@H](C[C@]5(C=C[C@H](C)[C@@H](C(C)C)O5)O4)OC(=O)[C@@H]4C=C(C)[C@@H](O)[C@H]5OC/C(=C\C=C\[C@@H]3C)[C@]54O)C[C@@H]2OC)O[C@@H](C)[C@H]1NC(C)=O [Eprinomectin B1b]
Pf_72h_%Growth_Rep1 [1]: 56.32%
Pf_72h_%Growth_Rep2 [1]: 35.21%
Pf_120h_%Growth_Rep1 [2]: 33.01%
Pf_120h_%Growth_Rep2 [2]: 22.71%
Tg_72h_%Growth_Rep1 [3]: 157.07%
Tg_72h_%Growth_Rep2 [3]: 101.19%
